From PubChem BioAssay (NCI)
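Five compound concentrations were applied to cells in 96-well plates for 48 hours; endpoints were derived by simple linear interpolation of the resulting dose-response curve. The concentration for full growth arrest is given as TGI.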 Where a SMILES comes first, the peptide text is derived from it. [ ]: non-standard residue; d: D form. The star is where a group is joined. X28 = COC1=CC(=O)N(C(=O)[C@@H](O*)C(C)C)[C@H]1Cc1ccccc1; NMeL = CN[C@@H](CC(C)C)C(=O)O; Cbz = O=C(OCc1ccccc1)*

Key:
Assay in all cases: inhibition of tumour cell growth, NCI panel, 48 h
MCF7 breast = system: MCF7 breast
HS 578T breast = system: HS 578T breast
HCC-2998 colon = system: HCC-2998 colon
SK-MEL-28 melanoma = system: SK-MEL-28 melanoma
K-562 leukemia = system: K-562 leukemia
SF-268 CNS = system: SF-268 CNS
BT-549 breast = system: BT-549 breast
A498 renal = system: A498 renal
DU-145 prostate = system: DU-145 prostate
TK-10 renal = system: TK-10 renal
UACC-62 melanoma = system: UACC-62 melanoma
CCRF-CEM leukemia = system: CCRF-CEM leukemia
OVCAR-3 ovarian = system: OVCAR-3 ovarian
SNB-75 CNS = system: SNB-75 CNS
T-47D breast = system: T-47D breast
EKVX NSCLC = system: EKVX NSCLC
SF-539 CNS = system: SF-539 CNS
OVCAR-8 ovarian = system: OVCAR-8 ovarian
OVCAR-5 ovarian = system: OVCAR-5 ovarian
SNB-19 CNS = system: SNB-19 CNS
HT29 colon = system: HT29 colon
SN12C renal = system: SN12C renal
ACHN renal = system: ACHN renal
COLO 205 colon = system: COLO 205 colon
M14 melanoma = system: M14 melanoma
SK-MEL-2 melanoma = system: SK-MEL-2 melanoma
NCI-H23 lung = system: NCI-H23 lung
U251 CNS = system: U251 CNS
CAKI-1 renal = system: CAKI-1 renal
PC-3 prostate = system: PC-3 prostate
SW-620 colon = system: SW-620 colon
IGROV1 ovarian = system: IGROV1 ovarian
HOP-62 NSCLC = system: HOP-62 NSCLC
KM12 colon = system: KM12 colon
RPMI-8226 leukemia = system: RPMI-8226 leukemia
HCT-116 colon = system: HCT-116 colon
UACC-257 melanoma = system: UACC-257 melanoma
786-0 renal = system: 786-0 renal
NCI/ADR-RES ovarian = system: NCI/ADR-RES ovarian
HL-60(TB) leukemia = system: HL-60(TB) leukemia
A549 NSCLC = system: A549 NSCLC
MALME-3M melanoma = system: MALME-3M melanoma
MDA-MB-435 = system: MDA-MB-435
MDA-N = system: MDA-N
SF-295 CNS = system: SF-295 CNS
LOX IMVI melanoma = system: LOX IMVI melanoma
NCI-H522 lung = system: NCI-H522 lung
MDA-MB-231 breast = system: MDA-MB-231 breast
HOP-92 NSCLC = system: HOP-92 NSCLC
NCI-H460 lung = system: NCI-H460 lung
UO-31 renal = system: UO-31 renal
RXF 393 renal = system: RXF 393 renal
SK-OV-3 ovarian = system: SK-OV-3 ovarian
OVCAR-4 ovarian = system: OVCAR-4 ovarian
HCT-15 colon = system: HCT-15 colon
NCI-H226 lung = system: NCI-H226 lung
SR leukemia = system: SR leukemia
SK-MEL-5 melanoma = system: SK-MEL-5 melanoma
MOLT-4 leukemia = system: MOLT-4 leukemia

Measured: TGI

COC1=CC(=O)N(C(=O)[C@@H](OC(=O)[C@@H]2CCCN2C(=O)[C@@H]2CCCN2C(=O)[C@H](CC(C)C)N(C)C(=O)[C@@H](NC(=O)[C@@H](NC(=O)OCc2ccccc2)C(C)C)C(C)C)C(C)C)[C@H]1Cc1ccccc1 (Cbz-VV[NMeL]PP-X28)
56.1 µM: A498 renal
38.9 µM: RXF 393 renal
28.6 µM: SK-MEL-2 melanoma
9.27 µM: SNB-75 CNS
43.8 µM: SF-539 CNS
76.8 µM: PC-3 prostate
61.9 µM: MDA-MB-231 breast
not listed: SR leukemia | SK-MEL-5 melanoma | MOLT-4 leukemia
> 100 µM: all other assays above

CC(Nc1cc(=O)n(C)c(=O)[nH]1)c1ccccc1 (centres undefined)
not listed: RPMI-8226 leukemia | MALME-3M melanoma | SK-OV-3 ovarian | NCI-H226 lung
> 100 µM: all other assays above

CN(C)C(=O)CO/N=C1/C(c2c(O)[nH]c3ccccc23)=Nc2ccccc21
58.6 µM: RXF 393 renal
89.8 µM: SNB-75 CNS
not listed: A498 renal
> 100 µM: all other assays above
